The target in assay [1] is T1, human GCGR (Homo sapiens, UniProt P47871).
T1 construct: expressed in transfected cells
Put plainly: cAMP activity assay (HitHunter cAMP XS), cells expressing human GCGR. Type of assay: cell-based. As to conditions: for EC50: Table 2, cAMP production, read-out: EC50 hGCGR. How it is done: (§1) Peptides were dissolved in 100% DMSO and serially diluted to generate 10 point titrations. The peptide solutions were then transferred into 384-well assay plates (150 nL/well). Assay ready frozen cells expressing human GLP1R or human GCGR were suspended in growth media consisting of DMEM medium (GIBCO), 10% FBS (GIBCO), 1×NEAA(GIBCO), 1× P/S (GIBCO), 10 ug/ml Blasticidin (GIBCO) and 200 μg/mL Hygromycin (GIBCO). […] The cell suspensions (15 μL) were then added to the assay plates containing the peptide solutions (30,000 cells/well for human GCGR; 10,000 cells/well for human GLP1R). The cells were incubated for 1 hour at room temperature in the dark. Production of cAMP was determined using HitHunter™ cAMPXS kits (DiscoverX) following manufacturer protocol. The plates were incubated for overnight at room temperature in the dark. Luminescence was measured using an EnVision Multilabel plate reader (Perkin Elmer). […] EC50 values were calculated using uses a 4 parameter logistic fit based on the Levenberg-Marquardt algorithm.
In general terms: Changes in cAMP serve as a functional read-out for many G protein-coupled receptors.

Assay [2] has as its target T2, human GLP1R (Homo sapiens, UniProt P43220).
T2 construct: expressed in transfected cells
As to the kind of experiment: cAMP activity assay (HitHunter cAMP XS), cells expressing human GLP1R. Type of assay: cell-based. As to conditions: Table 2; cAMP production; read-out: EC50 hGLP1R. How it is done: as §1

SMILES strings stand for the structures.

One may read the EC50 as the concentration at which the effect is half-maximal.

T2 sequence (P43220 24-463): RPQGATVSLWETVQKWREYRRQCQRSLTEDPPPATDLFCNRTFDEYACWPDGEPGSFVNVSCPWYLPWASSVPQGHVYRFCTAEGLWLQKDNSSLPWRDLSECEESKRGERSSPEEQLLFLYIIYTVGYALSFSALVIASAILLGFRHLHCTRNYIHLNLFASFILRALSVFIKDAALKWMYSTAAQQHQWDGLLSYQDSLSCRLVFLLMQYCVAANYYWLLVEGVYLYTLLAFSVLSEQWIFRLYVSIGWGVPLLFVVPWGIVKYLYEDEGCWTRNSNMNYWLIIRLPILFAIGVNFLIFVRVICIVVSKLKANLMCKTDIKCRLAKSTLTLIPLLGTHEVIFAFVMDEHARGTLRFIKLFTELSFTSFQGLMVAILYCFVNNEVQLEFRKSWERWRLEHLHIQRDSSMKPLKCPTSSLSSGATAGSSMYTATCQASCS
T1 sequence (P47871 26-477): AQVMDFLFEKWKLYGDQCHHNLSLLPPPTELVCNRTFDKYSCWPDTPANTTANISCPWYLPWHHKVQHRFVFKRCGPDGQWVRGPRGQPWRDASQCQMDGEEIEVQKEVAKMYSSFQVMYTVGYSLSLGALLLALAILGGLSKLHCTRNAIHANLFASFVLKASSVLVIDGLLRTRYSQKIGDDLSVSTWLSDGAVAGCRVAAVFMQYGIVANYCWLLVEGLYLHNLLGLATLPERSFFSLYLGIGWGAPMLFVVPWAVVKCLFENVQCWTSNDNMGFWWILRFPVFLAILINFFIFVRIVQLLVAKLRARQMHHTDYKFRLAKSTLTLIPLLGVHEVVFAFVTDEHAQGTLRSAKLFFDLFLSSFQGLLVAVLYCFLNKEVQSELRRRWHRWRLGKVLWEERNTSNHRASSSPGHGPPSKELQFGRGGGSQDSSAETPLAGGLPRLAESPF

`CC(C)C[C@H](NC(=O)[C@H](Cc1ccc(O)cc1)NC(=O)[C@H](CCCCN)NC(=O)[C@H](CO)NC(=O)[C@H](Cc1ccc(O)cc1)NC(=O)[C@H](CC(=O)O)NC(=O)[C@H](CO)NC(=O)[C@@H](NC(=O)[C@H](Cc1ccccc1)NC(=O)[C@@H](NC(=O)CNC(=O)[C@H](CCC(N)=O)NC(=O)[C@H](CO)NC(=O)[C@@H](N)Cc1c[nH]cn1)[C@@H](C)O)[C@@H](C)O)C(=O)N[C@@H](CC(=O)O)C(=O)N[C@@H](Cc1c[nH]c2ccccc12)C(=O)N[C@@H](CCCNC(=N)N)C(=O)N[C@@H](CCCNC(=N)N)C(=O)N[C@@H](C)C(=O)N[C@@H](CCC(N)=O)C(=O)N[C@@H](CC(=O)O)C(=O)N[C@@H](Cc1ccccc1)C(=O)N[C@H](C(=O)N[C@@H](CCC(N)=O)C(=O)N[C@@H](Cc1c[nH]c2ccccc12)C(=O)N[C@@H](CC(C)C)C(=O)N[C@@H](CC(C)C)C(=O)N[C@@H](CC(N)=O)C(=O)N[C@H](C(N)=O)[C@@H](C)O)C(C)C` [PD23]: the EC50 in assay [1] was determined as 0.03 nM; in assay [2] it was 0.05 nM.

In the case of `CC[C@H](C)[C@H](NC(=O)[C@H](CC(C)C)NC(=O)[C@H](Cc1c[nH]c2ccccc12)NC(=O)[C@H](CCC(N)=O)NC(=O)[C@@H](NC(=O)[C@H](Cc1ccccc1)NC(=O)[C@H](CC(=O)O)NC(=O)[C@H](CCC(N)=O)NC(=O)[C@H](C)NC(=O)[C@H](CCCNC(=N)N)NC(=O)[C@H](CCCNC(=N)N)NC(=O)[C@H](C)NC(=O)[C@H](CC(=O)O)NC(=O)[C@H](CC(C)C)NC(=O)[C@H](Cc1ccc(O)cc1)NC(=O)[C@H](CCCCN)NC(=O)[C@H](CO)NC(=O)[C@H](Cc1ccc(O)cc1)NC(=O)[C@H](CC(=O)O)NC(=O)[C@H](CO)NC(=O)[C@@H](NC(=O)[C@H](Cc1ccccc1)NC(=O)[C@@H](NC(=O)CNC(=O)[C@H](CCC(N)=O)NC(=O)[C@H](CO)NC(=O)[C@@H](N)Cc1c[nH]cn1)[C@@H](C)O)[C@@H](C)O)C(C)C)C(=O)N[C@@H](CCCNC(=N)N)C(=O)N[C@H](C(N)=O)[C@@H](C)O` [PD25], the results for the EC50 in assay [1] and in assay [2] were 0.04 nM and 0.02 nM, respectively.

Turning to `CC[C@H](C)[C@H](NC(=O)[C@H](CC(C)C)NC(=O)[C@H](Cc1c[nH]c2ccccc12)NC(=O)[C@H](CCC(N)=O)NC(=O)[C@@H](NC(=O)[C@H](Cc1ccccc1)NC(=O)[C@H](CC(=O)O)NC(=O)[C@H](CCC(N)=O)NC(=O)[C@H](C)NC(=O)[C@H](CCCNC(=N)N)NC(=O)[C@H](CCCNC(=N)N)NC(=O)[C@H](CO)NC(=O)[C@H](CC(=O)O)NC(=O)[C@H](CC(C)C)NC(=O)[C@H](Cc1ccc(O)cc1)NC(=O)[C@H](CCCCN)NC(=O)[C@H](CO)NC(=O)[C@H](Cc1ccc(O)cc1)NC(=O)[C@H](CC(=O)O)NC(=O)[C@H](CO)NC(=O)[C@@H](NC(=O)[C@H](Cc1ccccc1)NC(=O)[C@@H](NC(=O)CNC(=O)[C@H](CCC(N)=O)NC(=O)[C@H](CO)NC(=O)[C@@H](N)Cc1c[nH]cn1)[C@@H](C)O)[C@@H](C)O)C(C)C)C(=O)N[C@@H](CC(N)=O)C(=O)N[C@@H](Cc1ccc(O)cc1)C(N)=O` [PD31], the figures for the 50% effective concentration (EC50) in assay [1] and in assay [2] were 0.06 nM and 0.04 nM, respectively.

`CSCC[C@H](NC(=O)[C@H](CC(C)C)NC(=O)[C@H](Cc1c[nH]c2ccccc12)NC(=O)[C@H](CCC(N)=O)NC(=O)[C@@H](NC(=O)[C@H](Cc1ccccc1)NC(=O)[C@H](CC(=O)O)NC(=O)[C@H](CCC(N)=O)NC(=O)[C@H](C)NC(=O)[C@H](CCCNC(=N)N)NC(=O)[C@H](CCCNC(=N)N)NC(=O)[C@H](CO)NC(=O)[C@H](CC(=O)O)NC(=O)[C@H](CC(C)C)NC(=O)[C@H](Cc1c[nH]c2ccccc12)NC(=O)[C@H](Cc1c[nH]cn1)NC(=O)[C@H](CO)NC(=O)[C@H](Cc1ccc(O)cc1)NC(=O)[C@H](CC(=O)O)NC(=O)[C@H](CO)NC(=O)[C@H](Cc1ccccc1)NC(=O)[C@H](Cc1ccccc1)NC(=O)[C@@H](NC(=O)CNC(=O)[C@H](CCC(N)=O)NC(=O)[C@H](CO)NC(=O)[C@@H](N)Cc1c[nH]cn1)[C@@H](C)O)C(C)C)C(=O)N[C@@H](CC(N)=O)C(=O)N[C@H](C(N)=O)[C@@H](C)O` [PD43]: the EC50 stood at 0.03 nM in assay [1] and 0.04 nM in assay [2].

For the compound `CC(C)C[C@H](NC(=O)[C@H](Cc1ccc(O)cc1)NC(=O)[C@H](CCCCN)NC(=O)[C@H](CO)NC(=O)[C@H](Cc1ccc(O)cc1)NC(=O)[C@H](CC(=O)O)NC(=O)[C@H](CO)NC(=O)[C@@H](NC(=O)[C@H](Cc1ccccc1)NC(=O)[C@@H](NC(=O)CNC(=O)[C@H](CCC(N)=O)NC(=O)[C@H](CO)NC(=O)[C@@H](N)Cc1c[nH]cn1)[C@@H](C)O)[C@@H](C)O)C(=O)N[C@@H](CC(=O)O)C(=O)N[C@@H](Cc1c[nH]c2ccccc12)C(=O)N[C@@H](CCCNC(=N)N)C(=O)N[C@@H](CCCNC(=N)N)C(=O)N[C@@H](C)C(=O)N[C@@H](CCC(N)=O)C(=O)N[C@@H](CC(=O)O)C(=O)N[C@@H](Cc1ccccc1)C(=O)N[C@H](C(=O)N[C@@H](CCC(N)=O)C(=O)N[C@@H](Cc1c[nH]c2ccccc12)C(=O)N[C@@H](CC(C)C)C(=O)N[C@@H](CCC(N)=O)C(=O)N[C@@H](CC(N)=O)C(=O)N[C@H](C(N)=O)[C@@H](C)O)C(C)C` [PD44], the EC50 in assay [1] was 0.02 nM; in assay [2], 0.01 nM. Besides, the “balance of activity at the GCG and GLP-1 receptors” value in assay [1] (in words, both receptors) was “relatively balanced potent activity at the GCG and GLP-1 receptors”.

Regarding `CC(C)C[C@H](NC(=O)[C@H](CC(C)C)NC(=O)[C@H](Cc1c[nH]c2ccccc12)NC(=O)[C@H](CC(=O)O)NC(=O)[C@@H](NC(=O)[C@H](Cc1ccccc1)NC(=O)[C@H](CC(=O)O)NC(=O)[C@H](CCC(N)=O)NC(=O)[C@H](C)NC(=O)[C@H](CCCNC(=N)N)NC(=O)[C@H](CCCNC(=N)N)NC(=O)[C@H](CO)NC(=O)[C@H](CC(=O)O)NC(=O)[C@H](CC(C)C)NC(=O)[C@H](Cc1ccc(O)cc1)NC(=O)[C@H](CCCCN)NC(=O)[C@H](CO)NC(=O)[C@H](Cc1ccc(O)cc1)NC(=O)[C@H](CC(=O)O)NC(=O)[C@H](CO)NC(=O)[C@@H](NC(=O)[C@H](Cc1ccccc1)NC(=O)[C@@H](NC(=O)CNC(=O)[C@H](CCC(N)=O)NC(=O)[C@H](CO)NC(=O)[C@@H](N)Cc1c[nH]cn1)[C@@H](C)O)[C@@H](C)O)C(C)C)C(=O)N[C@@H](CC(N)=O)C(=O)N[C@@H](C)C(N)=O` [PD48], the EC50 was 0.07 nM in assay [1] and 0.02 nM in assay [2].

Regarding `CC[C@H](C)[C@H](NC(=O)[C@H](CC(C)C)NC(=O)[C@H](Cc1c[nH]c2ccccc12)NC(=O)[C@H](CC(=O)O)NC(=O)[C@@H](NC(=O)[C@H](Cc1ccccc1)NC(=O)[C@H](CC(=O)O)NC(=O)[C@H](CCC(N)=O)NC(=O)[C@H](C)NC(=O)[C@H](CCCNC(=N)N)NC(=O)[C@H](CCCNC(=N)N)NC(=O)[C@H](CO)NC(=O)[C@H](CC(=O)O)NC(=O)[C@H](CC(C)C)NC(=O)[C@H](Cc1ccc(O)cc1)NC(=O)[C@H](CCCCN)NC(=O)[C@H](CO)NC(=O)[C@H](Cc1ccc(O)cc1)NC(=O)[C@H](CC(=O)O)NC(=O)[C@H](CO)NC(=O)[C@@H](NC(=O)[C@H](Cc1ccccc1)NC(=O)[C@@H](NC(=O)CNC(=O)[C@H](CCC(N)=O)NC(=O)[C@H](CO)NC(=O)[C@@H](N)Cc1c[nH]cn1)[C@@H](C)O)[C@@H](C)O)C(C)C)C(=O)N[C@@H](CC(N)=O)C(=O)N[C@@H](CO)C(N)=O` [PD50], the figures for the EC50 in assay [1] and in assay [2] were 0.02 nM and 0.01 nM, respectively.

As to `CSCC[C@H](NC(=O)[C@H](CC(C)C)NC(=O)[C@H](Cc1c[nH]c2ccccc12)NC(=O)[C@H](CCC(N)=O)NC(=O)[C@@H](NC(=O)[C@H](Cc1ccccc1)NC(=O)[C@H](CC(=O)O)NC(=O)[C@H](CCC(N)=O)NC(=O)[C@H](C)NC(=O)[C@H](CCCNC(=N)N)NC(=O)[C@H](CCCNC(=N)N)NC(=O)[C@H](CO)NC(=O)[C@H](CC(=O)O)NC(=O)[C@H](CC(C)C)NC(=O)[C@H](Cc1ccc(O)cc1)NC(=O)[C@H](CCCCN)NC(=O)[C@H](CO)NC(=O)[C@H](Cc1ccc(O)cc1)NC(=O)[C@H](CC(=O)O)NC(=O)[C@H](CO)NC(=O)[C@@H](NC(=O)[C@H](Cc1ccccc1)NC(=O)[C@@H](NC(=O)CNC(=O)[C@H](Cc1c[nH]cn1)NC(=O)[C@H](CO)NC(=O)[C@@H](N)Cc1c[nH]cn1)[C@@H](C)O)[C@@H](C)O)C(C)C)C(=O)N[C@H](C(=O)N[C@H](C(N)=O)[C@@H](C)O)[C@@H](C)O` [PD51], the concentration giving a half-maximal response (EC50) in assay [1] is 0.03 nM; in assay [2], 0.02 nM.

Turning to `CSCC[C@H](NC(=O)[C@H](CC(=O)O)NC(=O)[C@H](CC(C)C)NC(=O)[C@H](Cc1ccc(O)cc1)NC(=O)[C@H](CCCCN)NC(=O)[C@H](CO)NC(=O)[C@H](Cc1ccc(O)cc1)NC(=O)[C@H](CC(=O)O)NC(=O)[C@H](CO)NC(=O)[C@@H](NC(=O)[C@H](Cc1ccccc1)NC(=O)[C@@H](NC(=O)CNC(=O)[C@H](CCC(N)=O)NC(=O)[C@H](CO)NC(=O)[C@@H](N)Cc1c[nH]cn1)[C@@H](C)O)[C@@H](C)O)C(=O)N[C@@H](CCC(N)=O)C(=O)N[C@@H](CCCNC(=N)N)C(=O)N[C@@H](C)C(=O)N[C@@H](Cc1c[nH]cn1)C(=O)N[C@@H](CC(=O)O)C(=O)N[C@@H](Cc1ccccc1)C(=O)N[C@H](C(=O)N[C@@H](CCC(N)=O)C(=O)N[C@@H](Cc1c[nH]c2ccccc12)C(=O)N[C@@H](CC(C)C)C(=O)N[C@@H](CCSC)C(=O)N[C@@H](CC(N)=O)C(=O)N[C@H](C(N)=O)[C@@H](C)O)C(C)C` [PD55], the EC50 in assay [1] and in assay [2] was 0.01 nM each time.

The record behind these values is US10493125B2 (Merck Sharp & Dohme Corp., priority 2015, dated 2019).
